Tests used:
BsVdcCD = target: T1, BsVdcCD (Bacillus subtilis, UniProt P94405); test: overnight endpoint HPLC decarboxylation assay; format: biochemical; details: 5 mM substrate, 10 µM enzyme, prFMN, MnCl2, 100 mM KPi pH 6, anaerobic, 18 h
T1 construct: gene bsdC; VdcC and VdcD expressed in E. coli BL21(DE3), His tag on C-terminus of VdcC and/or N-terminus of VdcD; reconstituted in vitro with prFMN and Mn2+; with Phenolic acid decarboxylase subunit D
T1 sequence (P94405 1-473): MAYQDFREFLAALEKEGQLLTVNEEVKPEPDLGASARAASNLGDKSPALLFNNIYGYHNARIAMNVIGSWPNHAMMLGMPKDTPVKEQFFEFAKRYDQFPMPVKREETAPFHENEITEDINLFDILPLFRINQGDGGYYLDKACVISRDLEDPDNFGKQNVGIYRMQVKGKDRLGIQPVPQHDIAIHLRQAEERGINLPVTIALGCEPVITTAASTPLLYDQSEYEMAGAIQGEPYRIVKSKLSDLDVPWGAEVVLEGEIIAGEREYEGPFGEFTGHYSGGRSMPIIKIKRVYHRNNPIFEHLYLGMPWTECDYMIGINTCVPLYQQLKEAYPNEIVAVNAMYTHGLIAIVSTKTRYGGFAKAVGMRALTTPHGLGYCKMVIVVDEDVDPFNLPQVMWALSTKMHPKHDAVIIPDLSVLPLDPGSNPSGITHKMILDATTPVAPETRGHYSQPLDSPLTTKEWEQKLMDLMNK
T1 sequence (C0H3U9 1-75 partner): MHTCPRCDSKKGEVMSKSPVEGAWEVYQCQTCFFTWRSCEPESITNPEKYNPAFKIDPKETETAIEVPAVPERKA

[1] = target: Sedimentibacter hydroxybenzoicus VdcC, untagged (Sedimentibacter hydroxybenzoicus); test: crystal structure; apo complexes; F222 closed (7AE4), P1 open (7AE5), P212121 ShVdcCD^V59X (7AE7); molecular replacement with E. coli UbiD domains

COc1cc(C(=O)O)cc(OC)c1O [syringic acid]
overnight endpoint HPLC decarboxylation assay (BsVdcCD): syringic acid, for which product formation could only be detected in the presence of BsVdcCD

COc1cc(C(=O)O)ccc1O [vanillic acid]
overnight endpoint HPLC decarboxylation assay (BsVdcCD): the VdcC + VdcD reconstituted samples demonstrated considerable activity in contrast to isolated VdcC

Sedimentibacter hydroxybenzoicus VdcC, untagged (enzyme)
stoichiometry N [1]: 6

— PMC8379154, “UbiD domain dynamics underpins aromatic decarboxylation” (Nature Communications, 2021)
